We go through one compound from patent US4153709A, “N-Heterocyclic ureas as immune regulants” (Eli Lilly and Company, priority 1977, dated 1979).

In data set [1] the test system is antibody to sheep red blood cells. Kind of data set: 75 percent reduction of control antibody titer in mice by subcutaneous, percutaneous and oral routes (Table 16). The class given is in vivo, male Swiss mice. To be noted: Mus musculus, Erythrocyte, × 10 daily doses commencing 3 days before antigen i.v. As to the method:
Subcutaneous, percutaneous, and oral activity have been achieved as indicated in Table 16 which follows employing representative compounds from the above entitled application. […] Except as indicated, the tests were performed using groups of five 20-gram male Swiss mice injected with 5×10^7 sheep red blood cells intravenously for each drug level. Ten (daily) administrations of drug were made commencing three days prior to red blood cell injection. On the day following the final treatment (7 days after red blood cell injection) the animals were bled by cardiac puncture, the sera from each five-mouse-group were pooled, and antibody titers of these serum pools and corresponding serum pools from control (untreated) mouse groups were determined. The results are expressed as the minimum drug dose effecting 75 percent reduction of control antibody titer: […]

The test system of data set [2] is graft versus host reaction. Kind of data set: Graft versus host (GVH) reaction, spleen weight (Tables 20, 21). It counts as in vivo, mice (C57BL donors, F1 hybrid C57BL×C3H recipients). The protocol: In this determination, […] (C57BL) mouse spleen cells are injected into mice of an F1 hybrid strain (C57BL×C3H). […] The injected cells, however, mount a reaction to the recipient's tissues due to the foreign C3H-derived antigens. As a consequence, the recipient's spleen becomes enlarged. Immunosuppressive therapy prevents or reduces this enlargement. Thus, spleen weights provide a measure of the GVH reaction and its reduction under immunosuppression.
Treated and GVH control animals receive an intraperitoneal injection of 1.2×10^9 splenic lymphocytes from the C57 donors. Spleens are weighed ten days later. Spleen weights derived from groups of recipient mice receiving genetically homologous, i.e., syngeneic cells (C57BL×C3H) provide normal control values for calculating percent inhibition in drug-treated groups. For example, mice given 13 daily topical doses of 1-(4,5,6,7-tetra-hydro-2-benzothiazolyl)-3-phenyl urea show a 62% reduction in GVH reaction relative to controls, as set forth in Table 20.
Using this procedure, three compounds from the above useful in the processes of this invention have been compared with several reference immunosuppressive drugs. Treatment levels defining the 50 percent inhibitory dose have been determined.

Data set [3] relates to Salmonella typhimurium G46 missense histidine-auxotroph. In words: Host mediated assay (in vivo mutagenicity), G46 indicator (Table 22). Further details: species or system Salmonella typhimurium in Cox white Swiss male mice. Particulars: high levels. As to the method:
Cox white Swiss male mice 25-30 grams were used in all in vivo tests.
A. Drug Administration: Appropriate solvents were used where applicable with a solvent control run within each test. […] The organisms were grown to stationary phase, then diluted with normal saline to give an inoculum near 1×10^8 organisms per milliliter. The abdominal area of the drug-treated mouse was swabbed with alcohol and two milliliters of bacterial culture were injected into the abdominal cavity of the mouse. The mice were returned to their cages for 3-4 hours.
C. Autopsy and Recovery: The mice were sacrificed individually by cervical dislocation prior to each autopsy. The abdominal areas were soaked with ethanol. The peritoneum was bared and 2.5 ml. of sterile normal saline was injected into the peritoneal cavity using a sterile (3-ml. plastic syringe with a 20-gauge needle. After insertion, the needle is turned bevel up and the saline was expelled into the cavity; while the needle remains through the peritoneum, keeping the point of the needle in sight pressed against the peritoneal wall, the abdomen of the mouse was massaged to mix contents. The saline wash was removed from the abdominal cavity back into the syringe. The needle was removed and the contents expelled into an appropriately marked tube and iced 4° C.
D. Dilution and Plating: One-ml. samples were plated at 10° dilution on all mice to determine revertants (histidine+).
A one-milliliter sample from the untreated dilutions from control animals is plated 10^-6, 10^-7, and 10^-8 dilutions with excess histidine to determine mutable population (histidine-).

The test system of the next data set is neoplasms in NZBxW mice. To be noted: Casey, New Zealand Medical Journal 74,290 (1973); control 0 percent; cited from earlier work.

Read-outs that look alike come from different tables or passages of the source.

Turning to `Cn1cnc([N+](=O)[O-])c1Sc1ncnc2nc[nH]c12` [Azathioprine, reference compound], the minimal effective dose in data set [1] (sc, subcutaneous, read-out: Lowest Dose Producing 75% Immunosuppression, Subcutaneous) is 50 to 100 mg/kg; in data set [1] (oral, read-out: Lowest Dose Producing 75% Immunosuppression, Oral), 50 mg/kg; in data set [1] (percutaneous, read-out: Lowest Dose Producing 75% Immunosuppression, Percutaneous), 100 mg/kg. For the same compound, the “Percent GVH Inhibition” value was determined as 43% in data set [2] (5 mg/kg × 13, s.c.) and 61% in data set [2] (10 mg/kg × 13, s.c.). In addition, the “mutagenic potential in the host-mediated system” value in data set [3] is reported as “POSSIBLE MUTAGENIC POTENTIAL”. Also, in the data set with neoplasms in NZBxW mice, the increase in neoplasms is given as 58%.
